Columns and labels:
[1] = tested on: IgG of CSF from patients suffering from MS; assay: ELISA of polypeptides, IgG response of CSFs diluted 1/10 (Table 5, FIGS. 7A and 7B); assay type: binding, human; conditions: total line, 15 MS patients, CSF 1/10
Description: FIGS. 7A and 7B represents the IgG response of the polypeptides whose peptide sequence consists of, respectively, SEQ ID NO: 13, SEQ ID NO: 12, SEQ ID NO: 14, SEQ ID NO: 16, SEQ ID NO: 19 and SEQ ID NO: 15, with respect to CSFs diluted 1/10; the results assembled in the appended Table 5 are expressed by the difference in the optical density values obtained for the polypeptide tested and the values obtained for the HIV polypeptide used as control; ND corresponds to patients suffering from a neurological disease other than MS, and MS* corresponds to patients suffering from MS.
Table 5, illustrated in FIGS. 7A and 7B, collates the results on the specific recognition of CSF from patients suffering from MS for 6 polypeptides of the invention, SEQ ID NO: 13, SEQ ID NO: 12, SEQ ID NO: 14, SEQ ID NO: 16, SEQ ID NO: 19 and SEQ ID NO: 15.
For each polypeptide tested, identified in Table 5 by its peptide sequence, the CSFs from patients 1-22 suffering from Ms are determined as positive (+) if the OD value at 492 nm for a 1/10 dilution of the CSF is greater than the mean values obtained for the CSFs from the ND patients+3 times the standard deviation.

[2] = tested on: IgM of sera from MS patients and healthy individuals; assay: ELISA of biotinylated synthetic peptide, IgM response of individual human sera; assay type: binding; design: key to LINE (mark: serum recognizes the peptide): X: 7 sera out of 11 recognize this peptide; conditions: 1/100; for LINE (mark: serum recognizes the peptide) / OD 1 / OD 2 / OD 3 / MEAN: IgM
Method: Depending on the information obtained from the preceding examples, the hexapeptides SEQ ID NO: 3 and SEQ ID NO: 4 were synthesized and biotinylated according to the method described in Patent Application No. EP 93420183 with the following modifications: the peptide still bound to the resin is selectively deprotected at the N-terminal position. After overnight incubation with the biotin-NHS at 50% in DMF, the peptide is then cleaved from the resin and treated as described in the patent cited above.
The wells of a Maxisorb (trade name, Nunc) microtiter plate are saturated with 100 μl of a 50 mM NaHCO3 solution, pH 9.6, containing 10 μg/ml of streptavidin for 2 hours at 37° C. The plate is washed with TBS/0.05% Tween 20 buffer. The wells are then saturated with 250 μl of wash buffer supplemented with 10% goat serum for 1 hour at 37° C. and then washed as described above.
The IgM response is determined by addition of a 1/4000 solution of mouse monoclonal antibody anti-alkaline phosphatase-labeled human M immunoglobulin conjugate (bioMérieux Ac 5A10D5). After incubation at 37° C. for one hour the plate is again washed and the p-nitrophenyl phosphate substrate at 1 mg/ml in an […] of diethanolamine, pH 9.8, containing 1 mM MgCl2, is added. The reaction is stopped after 30 minutes by the addition of 50 μl of 3N sodium hydroxide solution. The optical density is read at 405 nm.
This unit was therefore also synthesized and biotinylated.

Substance: DTPYPWGWLLDEGYD (MSRV) [SEQ ID NO: 15]
- number of positive (+) CSFs [1]: 0+

Substance: LAVRHD [SEQ ID NO: 8]
- LINE (mark: serum recognizes the peptide) ([2]; serum 33/6 (MS+, remission)): X
- OD 1 ([2]; serum 33/6 (MS+, remission)): 516 optical density (×1000)
- OD 2 ([2]; serum 33/6 (MS+, remission)): 529 optical density (×1000)
- OD 3 ([2]; serum 33/6 (MS+, remission)): 481 optical density (×1000)
- MEAN ([2]; serum 33/6 (MS+, remission), (mean less Control 1, 173)): 336 optical density (×1000)
- MEAN ([2]; serum 33/6 (MS+, remission), MEAN): 509 optical density (×1000)
- LINE (mark: serum recognizes the peptide) ([2]; serum 33/8 (MS+, remission)): X
- OD 1 ([2]; serum 33/8 (MS+, remission)): 609 optical density (×1000)
- OD 2 ([2]; serum 33/8 (MS+, remission)): 512 optical density (×1000)
- OD 3 ([2]; serum 33/8 (MS+, remission)): 568 optical density (×1000)
- MEAN ([2]; serum 33/8 (MS+, remission), (mean less Control 1, 173)): 390 optical density (×1000)
- MEAN ([2]; serum 33/8 (MS+, remission), MEAN): 563 optical density (×1000)
- LINE (mark: serum recognizes the peptide) ([2]; serum 33/18 (MS+, remission)): X
- OD 1 ([2]; serum 33/18 (MS+, remission)): 277 optical density (×1000)
- OD 2 ([2]; serum 33/18 (MS+, remission)): 262 optical density (×1000)
- OD 3 ([2]; serum 33/18 (MS+, remission)): 255 optical density (×1000)
- MEAN ([2]; serum 33/18 (MS+, remission), (mean less Control 1, 173)): 92 optical density (×1000)
- MEAN ([2]; serum 33/18 (MS+, remission), MEAN): 265 optical density (×1000)
- OD 1 ([2]; serum No. 12 (MS−, healthy)): 222 optical density (×1000)
- OD 2 ([2]; serum No. 12 (MS−, healthy)): 175 optical density (×1000)
- OD 3 ([2]; serum No. 12 (MS−, healthy)): 163 optical density (×1000)
- MEAN ([2]; serum No. 12 (MS−, healthy), (mean less Control 1, 173)): 14 optical density (×1000)
- MEAN ([2]; serum No. 12 (MS−, healthy), MEAN): 187 optical density (×1000)
- OD 1 ([2]; serum No. 13 (MS−, healthy)): 145 optical density (×1000)
- OD 2 ([2]; serum No. 13 (MS−, healthy)): 154 optical density (×1000)
- OD 3 ([2]; serum No. 13 (MS−, healthy)): 196 optical density (×1000)
- MEAN ([2]; serum No. 13 (MS−, healthy), (mean less Control 1, 173)): −6 optical density (×1000)
- MEAN ([2]; serum No. 13 (MS−, healthy), MEAN): 165 optical density (×1000)
- OD 1 ([2]; serum No. 14 (MS−, healthy)): 320 optical density (×1000)
- OD 2 ([2]; serum No. 14 (MS−, healthy)): 165 optical density (×1000)
- OD 3 ([2]; serum No. 14 (MS−, healthy)): 143 optical density (×1000)
- MEAN ([2]; serum No. 14 (MS−, healthy), (mean less Control 1, 173)): 36 optical density (×1000)
- MEAN ([2]; serum No. 14 (MS−, healthy), MEAN): 209 optical density (×1000)
- OD 1 ([2]; serum No. 15 (MS−, healthy)): 254 optical density (×1000)
- OD 2 ([2]; serum No. 15 (MS−, healthy)): 205 optical density (×1000)
- OD 3 ([2]; serum No. 15 (MS−, healthy)): 173 optical density (×1000)
- MEAN ([2]; serum No. 15 (MS−, healthy), (mean less Control 1, 173)): 38 optical density (×1000)
- MEAN ([2]; serum No. 15 (MS−, healthy), MEAN): 211 optical density (×1000)
- LINE (mark: serum recognizes the peptide) ([2]; serum QS 2 (MS+, remission)): X
- OD 1 ([2]; serum QS 2 (MS+, remission)): 281 optical density (×1000)
- OD 2 ([2]; serum QS 2 (MS+, remission)): 280 optical density (×1000)
- OD 3 ([2]; serum QS 2 (MS+, remission)): 231 optical density (×1000)
- MEAN ([2]; serum QS 2 (MS+, remission), (mean less Control 1, 173)): 91 optical density (×1000)
- MEAN ([2]; serum QS 2 (MS+, remission), MEAN): 264 optical density (×1000)
- OD 1 ([2]; serum QS 3 (MS+, remission)): 191 optical density (×1000)
- OD 2 ([2]; serum QS 3 (MS+, remission)): 169 optical density (×1000)
- OD 3 ([2]; serum QS 3 (MS+, remission)): 164 optical density (×1000)
- MEAN ([2]; serum QS 3 (MS+, remission), (mean less Control 1, 173)): 2 optical density (×1000)
- MEAN ([2]; serum QS 3 (MS+, remission), MEAN): 175 optical density (×1000)
- LINE (mark: serum recognizes the peptide) ([2]; serum QS 4 (MS+, remission)): X
- OD 1 ([2]; serum QS 4 (MS+, remission)): 374 optical density (×1000)
- OD 2 ([2]; serum QS 4 (MS+, remission)): 361 optical density (×1000)
- OD 3 ([2]; serum QS 4 (MS+, remission)): 346 optical density (×1000)
- MEAN ([2]; serum QS 4 (MS+, remission), (mean less Control 1, 173)): 187 optical density (×1000)
- MEAN ([2]; serum QS 4 (MS+, remission), MEAN): 360 optical density (×1000)
- OD 1 ([2]; serum QS 6 (MS+, remission)): 156 optical density (×1000)
- OD 2 ([2]; serum QS 6 (MS+, remission)): 147 optical density (×1000)
- OD 3 ([2]; serum QS 6 (MS+, remission)): 151 optical density (×1000)
- MEAN ([2]; serum QS 6 (MS+, remission), (mean less Control 1, 173)): −22 optical density (×1000)
- MEAN ([2]; serum QS 6 (MS+, remission), MEAN): 151 optical density (×1000)
- LINE (mark: serum recognizes the peptide) ([2]; serum QS 7 (MS+, remission)): X
- OD 1 ([2]; serum QS 7 (MS+, remission)): 311 optical density (×1000)
- OD 2 ([2]; serum QS 7 (MS+, remission)): 290 optical density (×1000)
- OD 3 ([2]; serum QS 7 (MS+, remission)): 164 optical density (×1000)
- MEAN ([2]; serum QS 7 (MS+, remission), (mean less Control 1, 173)): 82 optical density (×1000)
- MEAN ([2]; serum QS 7 (MS+, remission), MEAN): 265 optical density (×1000)
- LINE (mark: serum recognizes the peptide) ([2]; serum QS 8 (MS+, remission)): X
- OD 1 ([2]; serum QS 8 (MS+, remission)): 305 optical density (×1000)
- OD 2 ([2]; serum QS 8 (MS+, remission)): 221 optical density (×1000)
- OD 3 ([2]; serum QS 8 (MS+, remission)): 265 optical density (×1000)
- MEAN ([2]; serum QS 8 (MS+, remission), (mean less Control 1, 173)): 91 optical density (×1000)
- MEAN ([2]; serum QS 8 (MS+, remission), MEAN): 264 optical density (×1000)
- OD 1 ([2]; serum QS 11 (MS+, remission)): 164 optical density (×1000)
- OD 2 ([2]; serum QS 11 (MS+, remission)): 160 optical density (×1000)
- OD 3 ([2]; serum QS 11 (MS+, remission)): 139 optical density (×1000)
- MEAN ([2]; serum QS 11 (MS+, remission), (mean less Control 1, 173)): −19 optical density (×1000)
- MEAN ([2]; serum QS 11 (MS+, remission), MEAN): 154 optical density (×1000)
- OD 1 ([2]; serum QS 12 (MS+, remission)): 123 optical density (×1000)
- OD 2 ([2]; serum QS 12 (MS+, remission)): 57 optical density (×1000)
- OD 3 ([2]; serum QS 12 (MS+, remission)): 148 optical density (×1000)
- MEAN ([2]; serum QS 12 (MS+, remission), (mean less Control 1, 173)): −64 optical density (×1000)
- MEAN ([2]; serum QS 12 (MS+, remission), MEAN): 109 optical density (×1000)
- MS sera recognizing the peptide, IgM response ([2]; same panel of 11 MS remission sera): 7 sera out of 11

Reference: US6555091B1, “Polypeptide capable of reacting with antibodies of patients suffering from multiple sclerosis and uses” (Bio Merieux, priority 1997, dated 2003)
